In patent publication US20120283332A1 (OHIO UNIVERSITY, priority 2009, published 2012):

Tests used:
Type 2 diabetes = settings: human, in vivo
Description: They had recently stopped all diabetic medications due to side effects. They wished to stay off insulin due to the risk of gaining weight.
Labs: Hgb A1C 11.2%, Total Cholesterol: 159, Triglycerides: 284, HDL: 32, LDL: 70
The patient was not on any diabetic medications due to intolerable gastrointestinal side effects. […] It was decided that an alternative drug delivery mechanism would be appropriate. […] The patient was educated on the usage of the gel, how to apply the gel and potential side effects. The patient was to contact the physician if any adverse effects occurred. […] The patient was to follow-up in one month.
The patient stated that there had been no lifestyle changes.
Lipids were collected with results of total cholesterol: 119, triglycerides: 209, HDL: 29, LDL: 48.
They were interested in trying a medication that will cover their through the evening to get their BS to 200 mg/dL in the morning. They were concerned with anything that will cause them to gain weight.

[1] = cited from earlier work
DM2 = settings: oral metformin
[2] = oral; cited from earlier work

| SMILES | tolerability of previously tried diabetic medications (Type 2 diabetes) | patients experiencing a gastrointestinal side effect ([1]; oral metformin, anorexia, nausea, vomiting, abdominal discomfort, diarrhea) | patients discontinuing therapy due to side effects ([1]; oral metformin) | patients developing vitamin B12 deficiency ([1]; patients taking metformin) [%] | BS readings (DM2; before it was stopped) | side effects leading to stopping (DM2; stopped 3 months prior to visit) | absorption time [2] [h] |
| --- | --- | --- | --- | --- | --- | --- | --- |
| N[C@@H](CC(=O)N1CCn2c(nnc2C(F)(F)F)C1)Cc1cc(F)c(F)cc1F [sitagliptin] | unable to tolerate | – | – | – | – | – | – |
| CN(C)C(=N)N=C(N)N [metformin] | unable to tolerate | Up to 20% | up to 5% | 77 | improved | severe gastrointestinal side effects | 6 |
| CCc1ccc(CCOc2ccc(CC3SC(=O)NC3=O)cc2)nc1 (stereo not drawn) [pioglitazone] | unable to tolerate | – | – | – | – | – | – |
